In patent publication US20230172928A1 (priority 2020, published 2023):
Values joined by “and” are separate entries in the source; they are usually repeats but may differ in a detail not shown here. Equal entries are not always repeated. Where two headings read alike, the source gives them in different places.

How the values were obtained:
PC9 cells = assay: Cell proliferation / combination dose matrix assay (CellTiter-Glo); format: cell-based, human
Procedure: (§1) Human cancer cell lines originated from the CCLE (Cancer Cell Line Encyclopedia) authenticated by single-nucleotide polymorphism analysis and tested for mycoplasma infection using a PCR-based detection technology (IDEXX BioAnalytics) when CCLE was established in 2012. All cell lines used were directly thawed from the CCLE collection stock. All cell lines were cultured in RPMI Medium (ThermoFisher Scientific) except HT-29 (McCoy's 5A), RKO (MEMα), MDST8 (DMEM), A-427 (MEMα) and MIA PaCA-2 (DMEM), supplemented with 10% FBS (VWR). Cell lines were used within 15 passages of thawing and continuously cultured for less than 6 months.
(§2) For combination dose matrix assay, 2000 to 3000 cells were seeded in 96-well plates in 80 μL media per well. On the second day, serial dilutions of the two combination agents were subsequently added, each in 20 μL media at 6× of final indicated concentrations. 3 days later, cell viability was measured by the CellTiter-Glo Assay (Promega #G7573). The mean and standard deviation (n=3) of percentages of inhibition (relative to the DMSO-treated control) of compound-treated cells and synergy scores between the two compounds were determined. Synergy scores greater than 2 are considered to have synergistic rather than additive effects.
(§3) Statistical analyses were performed and curve fit and IC50 values were generated using GraphPad Prism 8 software. Statistical significance was determined using unpaired, paired student t test, or Mann-Whitney test. Significance was set at p=0.05.

[1] = Adverse events of decreased left ventricular ejection fraction; design: species or system human; conditions: in vivo
Source text: Patients with EGFR-mutant NSCLC have a high disease control rate with EGFR inhibitors (e.g., erlotinib, gefitinib, osimertinib), but resistance invariably develops. Resistance mechanisms are heterogeneous, but commonly result in restoration of mutant EGFR signaling and/or amplification or overexpression of RTKs other than EGFR (such as MET) or of their ligands.

PC14 cells [2] = assay: Immunoblot of PC14 cell lysates (p-ERK, c-PARP, BIM); format: cell-based, human; conditions: nazartinib 0.1 or 0.3 μM, 3 μM TNO155 or combination, 4 h or 24 h
Procedure: For immunoblotting: Cells (200,000 to 750,000) in 2 mL growth media were seeded in 6-well plates (Corning, #3506). After 24 hours, cells were treated with compounds or growth factors at the indicated concentrations and duration. Cells were lysed on ice in RIPA buffer (Boston Bioproduct #BP-115) supplemented with 1 mM EDTA and Halt Protease and Phosphatase Inhibitor Cocktail (Thermo Fisher Scientific #1861281). Lysates were centrifuged at 14,000 rpm at 4° C. for 15 minutes and protein concentrations were determined using BCA protein assay (Thermo Fisher Scientific). […] The bound primary antibodies were visualized using Goat anti-rabbit IgG secondary antibody conjugated with Alexa Fluor 700 and goat anti-mouse IgG secondary antibody conjugated with IRDye 800 CW and scanning with an Odyssey Infrared Imager System (Li-Cor). […]

CYP3A4 = CYP3A4 (Homo sapiens, UniProt P08684); assay: CYP3A4 interaction / metabolism
HCC827 cells = assay: Cell proliferation / combination dose matrix assay (CellTiter-Glo); format: cell-based; conditions: Homo sapiens, HCC827, HCC827, EGFR ex19del
HCC4006 cells = assay: as above; format: cell-based; conditions: Homo sapiens; HCC4006, EGFR ex19del
Procedure: as §1, §2, §3

HCC2279 cells = assay: as above; format: cell-based; conditions: Homo sapiens; HCC2279, EGFR ex19del
Procedure: as §1, §2, §3

NCI-H1650 cells = assay: as above; format: cell-based; conditions: Homo sapiens; NCI-H1650, EGFR ex19del
Procedure: as §1, §2, §3

NCI-H3255 cells = assay: as above; format: cell-based; conditions: Homo sapiens, NCI-H3255, NCI-H3255, EGFR L858R
Procedure: as §1, §2, §3

[3] = tested on: patients with EGFRmutated NSCLC; assay: First-in-human study of nazartinib (CEGF816X2101); format: in vivo; conditions: 75 mg to 350 mg QD
Procedure: Nazartinib has been studied in 7 clinical trials.
(§4) The starting dose of nazartinib in this study is 150 mg QD, dosed continuously. In CEGF816X2101, the first-in-human study of nazartinib, doses of nazartinib from 75 mg daily to 350 mg daily were investigated. […] Thus the starting dose of 20 mg QD, 2 weeks on/1 week off provides an adequate tolerability margin for combination with nazartinib 150 mg QD.

PC14 cells [4] = assay: Cell proliferation / combination dose matrix assay (CellTiter-Glo); format: cell-based, human; conditions: for IC50: Homo sapiens, PC-14, PC14, EGFR ex19del
Procedure: (§5) Human cancer cell lines originated from the CCLE (Cancer Cell Line Encyclopedia) authenticated by single-nucleotide polymorphism analysis and tested for mycoplasma infection using a PCR-based detection technology (IDEXX BioAnalytics) when CCLE was established in 2012. All cell lines used were directly thawed from the CCLE collection stock. All cell lines were cultured in RPMI Medium (ThermoFisher Scientific) except HT-29 (McCoy's 5A), RKO (MEMα), MDST8 (DMEM), A-427 (MEMα) and MIA PaCA-2 (DMEM), supplemented with 10% FBS (VWR). Cell lines were used within 15 passages of thawing and continuously cultured for less than 6 months. For combination dose matrix assay, 2000 to 3000 cells were seeded in 96-well plates in 80 μL media per well. On the second day, serial dilutions of the two combination agents were subsequently added, each in 20 μL media at 6× of final indicated concentrations. 3 days later, cell viability was measured by the CellTiter-Glo Assay (Promega #G7573). The mean and standard deviation (n=3) of percentages of inhibition (relative to the DMSO-treated control) of compound-treated cells and synergy scores between the two compounds were determined. […] Statistical analyses were performed and curve fit and IC50 values were generated using GraphPad Prism 8 software. Statistical significance was determined using unpaired, paired student t test, or Mann-Whitney test. Significance was set at p=0.05. […] After 3 days (PC14) or 6 days (NCI-H1975), cell proliferation was measured using the Cell Titer-Glo® assay and luminescent signals of each dose combination were normalized to that of the DMSO (vehicle control) group.

NCI-H1975 cells = assay: as above; format: cell-based, human; conditions: for IC50: Homo sapiens, NCI-H1975, EGFR L858R/T790M
Procedure: as §5

[5] = tested on: pERK in DETROIT-562 (pharyngeal squamous cell carcinoma) cells; assay: in vitro pERK inhibition; format: cell-based; conditions: Homo sapiens
[6] = tested on: EGFR L858R model 29667HXXTM; conditions: osimertinib 10 mpk daily, TNO155 10 mpk BID
[7] = tested on: pERK in KYSE-520 (esophageal squamous cell carcinoma) cells; assay: in vitro pERK inhibition; format: cell-based; conditions: Homo sapiens
[8] = tested on: EGFR L858R model 29665HXXTM; conditions: osimertinib 10 mpk daily, TNO155 10 mpk BID
[9] = mice
[10] = TNO155 regimens tested in patients; format: in vivo, human; conditions: 60 mg QD 2 weeks on/1 week off and 40 mg QD 3 weeks on/1 week off
Procedure: as §4

[11] = tested on: KYSE-520 (esophageal squamous cell carcinoma) cells; assay: in vitro antiproliferation; format: cell-based; conditions: Homo sapiens
[12] = tested on: DETROIT-562 (pharyngeal squamous cell carcinoma) cells; assay: in vitro antiproliferation; format: cell-based; conditions: Homo sapiens
[13] = tested on: EGFR L858R model 29666HXXTM; conditions: osimertinib 10 mpk daily, TNO155 10 mpk BID
[14] = tested on: EGFR-dependent DETROIT-562 cancer cell line; assay: In vivo SHP2 inhibition and efficacy, DETROIT-562 model; conditions: orally-administered, 20 mg/kg
[15] = Tagrisso prescribing information; cited from earlier work
[16] = Homo sapiens, PC-9, PC9, EGFR ex19del

CYP3A4, sequence (P08684 whole entry): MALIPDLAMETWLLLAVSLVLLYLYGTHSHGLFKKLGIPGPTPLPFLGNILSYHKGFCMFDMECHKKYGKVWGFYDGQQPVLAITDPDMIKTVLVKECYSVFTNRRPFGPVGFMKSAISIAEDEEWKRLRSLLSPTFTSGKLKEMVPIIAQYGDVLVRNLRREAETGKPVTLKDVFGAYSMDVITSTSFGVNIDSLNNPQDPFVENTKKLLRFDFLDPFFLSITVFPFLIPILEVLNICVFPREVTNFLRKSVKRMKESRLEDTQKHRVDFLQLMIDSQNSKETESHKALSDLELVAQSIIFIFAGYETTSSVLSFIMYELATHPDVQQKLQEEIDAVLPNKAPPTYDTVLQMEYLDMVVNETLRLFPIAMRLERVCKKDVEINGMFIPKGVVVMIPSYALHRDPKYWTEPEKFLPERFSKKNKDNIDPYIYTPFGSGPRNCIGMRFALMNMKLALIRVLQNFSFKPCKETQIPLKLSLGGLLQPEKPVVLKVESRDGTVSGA

| Compound | IC50 (PC9 cells; [16]) [nM] | p-ERK levels (PC14 cells [2]) | IC50 (HCC4006 cells) [nM] | IC50 (HCC2279 cells) [nM] | IC50 (NCI-H1650 cells) [nM] | IC50 (PC14 cells [4]) [nM] | IC50 (NCI-H1975 cells) [nM] | anti-tumor activity (tumor volume) [6] | anti-tumor activity (tumor volume) [8] | anti-tumor activity (tumor volume) [13] | other results |
| --- | --- | --- | --- | --- | --- | --- | --- | --- | --- | --- | --- |
| Cc1cc(C(=O)Nc2nc3cccc(Cl)c3n2[C@@H]2CCCCN(C(=O)/C=C/CN(C)C)C2)ccn1 [Nazartinib, (R,E)-N-(7-chloro-1-(1-(4-(dimethylamino)but-2-enoyl)azepan-3-yl)-1H-benzo[d]imidazol-2-yl)-2-methylisonicotinamide] | 10 | rebound of p-ERK levels was observed after 24 h | 60 | > 3000 | > 3000 | 50 | 170 |  |  |  | adverse events of decreased left ventricular ejection fraction [1]: not associated with adverse events of decreased left ventricular ejection fraction; metabolism (CYP3A4): primarily metabolized by CYP3A4; IC50 (HCC827 cells): 40 nM; IC50 (NCI-H3255 cells): 10 nM; anti-tumor efficacy [3]: anti-tumor efficacy was observed at all doses; maximum tolerated dose [3]: not established |
| C[C@@H]1OCC2(CCN(c3cnc(Sc4ccnc(N)c4Cl)c(N)n3)CC2)[C@@H]1N [TNO155, (3S,4S)-8-(6-amino-5-((2-amino-3-chloropyridin-4-yl)thio)pyrazin-2-yl)-3-methyl-2-oxa-8-azaspiro[4.5]decan-4-amine] | < 1500 | effectively reduced p-ERK levels at 4 h but also suffered a rebound at 24 h | > 10000 | > 10000 | > 10000 | 5010 | > 10000 | minimal activity | minimal activity | effectively slowed down the tumor growth | IC50 [5]: 35 nM; IC50 (PC9 cells; PC9, EGFR ex19del): 1460 nM; IC50 [7]: 8 nM and 0.0034 µg/mL; half-life [9]: short half-life; maximum tolerated dose ([9]; twice a day (BID)): 20 mg per kilogram body weight (mpk); tolerability [10]: tolerated; CYP3A4 induction / inhibition (CYP3A4; human): neither an inducer nor inhibitor of CYP3A4; IC50 [11]: 100 nM; IC50 [12]: 470 nM; single agent activity (PC14 cells [4]; PC14, low concentrations, e.g. 0.124 μM): lacks single agent activity; single agent activity (NCI-H1975 cells; NCI-H1975, low concentrations, e.g. 0.124 μM): lacks single agent activity; decrease in DUSP6 mRNA transcript [14]: approximately 95%; regression ([14]; twice-daily schedule): 47% |
| C=CC(=O)Nc1cc(Nc2nccc(-c3cn(C)c4ccccc34)n2)c(OC)cc1N(C)CCN(C)C [osimertinib, reference compound] |  |  |  |  |  |  |  | modest | strong | only transient efficacy | adverse events of decreased left ventricular ejection fraction [15]: Such events have been described |
